Measured values reported in patent US20230059087A1, “CANNABIDIOL DERIVATIVES, PREPARATION METHOD THEREOF AND USE THEREOF” (CHENGDU BAIYU PHARMACEUTICAL CO., LTD., priority 2020, published 2023).

Test: Pharmacokinetics in rats after intragastric administration
Settings: SD, rat, plasma, po, 50 mg/kg
Description: (§1) Healthy adult SD rats (n=3 per group) were fasted overnight (free access to water), and then were administrated the drugs by intragastric administration (i.g.) (50 mg/kg). 0.1 mL of blood was collected from the jugular venous plexus of the rats at 15 minutes, 30 minutes, 1 hour, 2 hours, 4 hours, 6 hours, 8 hours, 24 hours after administration. All blood samples were anticoagulated with K2EDTA, then centrifuged at 3500 rpm at 5° C. for 10 minutes to separate plasma, and stored at −20° C. for test. Parent drug concentration in plasma was determined by LC/MS/MS method.
In the case of C=C(C)[C@@H]1CCC(C)=C[C@H]1c1c(O)cc(CCCCC)cc1O [CBD, cannabidiol], the AUC(0-inf) was 4500 ng·h/mL, the AUC(0-t) was 4460 ng·h/mL and the Cmax was 784 ng/mL. The Tmax was 2 h and the half-life was 288 min.
[2H]C([2H])=C([C@@H]1CCC(C([2H])([2H])[2H])=C[C@H]1c1c(O)cc(CCCCC)cc1O)C([2H])([2H])[2H] [Example 7, (1′R,2′R)-5′-(methyl-d3)-4-pentyl-2′-(prop-1-en-2-yl-d5)-1′,2′,3′,4′-tetrahydro-[1,1′-biphenyl]-2,6-diol] gave an AUC(0-inf) of 6290 ng·h/mL, an AUC(0-t) of 5830 ng·h/mL and a Cmax of 901 ng/mL. The Tmax was 2.2 h and the half-life was 390 min.
Work on [2H]C([2H])([2H])C1=C[C@@H](c2c(O)cc(CCCCCCC)cc2O)[C@H](C(=C)C)CC1 [Example 9, (1′R,2′R)-4-heptyl-5′-(methyl-d3)-2′-(prop-1-en-2-yl)-1′,2′,3′,4′-tetrahydro-[1,1′-biphenyl]-2,6-diol] yielded an AUC(0-inf) of 6480 ng·h/mL, an AUC(0-t) of 6220 ng·h/mL and a Cmax of 823 ng/mL. The Tmax was 2 h and the half-life was 474 min.
[2H]C([2H])([2H])C1=C[C@@H](c2c(O)cc(CCCCC)cc2O)[C@H](C(=C)C)CC1([2H])[2H] [Example 13, (1′R,2′R)-5′-(methyl-d3)-4-pentyl-2′-(prop-1-en-2-yl)-1′,2′,3′,4′-tetrahydro-[1,1′-biphenyl]-4′,4′-d2-2,6-diol] showed an AUC(0-inf) of 6180 ng·h/mL, an AUC(0-t) of 5980 ng·h/mL and a Cmax of 871 ng/mL. For the same molecule, the Tmax was 2 h and the half-life was 360 min.
Work on [2H]C([2H])(O)C1=C[C@@H](c2c(O)cc(CCCCC)cc2O)[C@H](C(=C)C)CC1([2H])[2H] [Example 16] yielded an AUC(0-inf) of 5630 ng·h/mL, an AUC(0-t) of 5490 ng·h/mL and a Cmax of 860 ng/mL. It also gave a Tmax of 1.5 h and a half-life of 348 min.
Work on [2H]C([2H])([2H])C1=C[C@H](c2c(O)cc(CCCCC)c(C(=O)O)c2O)[C@@H](C(=C)C)CC1 [Example 23] yielded an AUC(0-inf) of 8230 ng·h/mL, an AUC(0-t) of 6980 ng·h/mL and a Cmax of 977 ng/mL. The Tmax was 1.75 h and the half-life was 390 min.

Test: in vivo
Settings: SD, rat, po, 50 mg/kg
Description: as §1
In the case of [2H]C([2H])([2H])C1=C[C@H](c2c(O)cc(CCC)cc2O)C(C(=C)C)CC1 (stereo in doubt) [Example 3, 5′-(methyl-d3)-2′-(prop-1-en-2-yl)-4-propyl-1′,2′,3′,4′-tetrahydro-[1,1′-biphenyl]-2,6-diol], the AUC(0-inf) was 4480 ng·h/mL, the AUC(0-t) was 4230 ng·h/mL and the Cmax was 795 ng/mL. The Tmax was 2.1 h and the half-life was 294 min.
